Literature values as cited in US20040241252A1, “Pharmaceutical compositions for oral administration comprising lithium carbonate, processes of making the same, and methods of administering the same” (priority 2003, published 2004).

| Structure (SMILES) | time to complete absorption (oral, gastrointestinal tract) | fraction of a single dose eliminated in the urine (single dose) | mean absorption half-time (single liquefied dose, volunteers) [h] |
| --- | --- | --- | --- |
| [Li+] [Li^+, lithium ion] | about 8 hours | Ninety-five |  |
| [Cl-].[Li+] [lithium chloride] |  |  | 0.15 |
